Assay results published in US20090269403A1, “ORAL CONTRACEPTIVE DOSAGE FORMS AND METHODS OF MAKING SUCH DOSAGE FORMS” (priority 2008, published 2009).

How the values were obtained:
[1] = Drug release from enteric-coated drospirenone/ethinylestradiol tablets (USP Type II paddle dissolution); format: physicochemical; settings: Example 19 enteric-coated tablets, second test run, 75 rpm, 37° C.
Description: The rate at which the tablets release the drospirenone and ethinylestradiol was determined. Each tablet was placed in 0.1 N HCl and stirred for 2 hours. After this time, the pH of each of the mixtures containing the tablets was adjusted to pH 6.8 with phosphate buffer and stirred for 4 hours using a USP Type II paddle apparatus at 75 rpm and 37° C. A second test run gave the results listed below in Table 12. A graph of the drug release profiles for the second test run is depicted in FIG. 4.

[2] = water at various pH values; cited from earlier work
[3] = acidic conditions (such as encountered in the gastric environment); cited from earlier work

SMILES: C[C@]12CCC(=O)C=C1[C@@H]1C[C@@H]1[C@H]1[C@@H]3[C@@H]4C[C@@H]4[C@@]4(CCC(=O)O4)[C@@]3(C)CC[C@@H]12 [Drospirenone, 6β,7β,15β, 16β-dimethylene-3-oxo-17a-pregn-4-ene-21,17-carbolactone]
- Average % Drug Release (n = 6), 5 min ([1]; 5 min, in 0.1 N HCl): 0.0%
- Average % Drug Release (n = 6), 120 min ([1]; 120 min, end of 2 hours in 0.1 N HCl): 0.0%
- Average % Drug Release (n = 6), 130 min ([1]; 130 min, 2 hours 0.1 N HCl, then pH 6.8 phosphate buffer): 29.1%
- Average % Drug Release (n = 6), 140 min ([1]; 140 min, 2 hours 0.1 N HCl, then pH 6.8 phosphate buffer): 108.4%
- Average % Drug Release (n = 6), 150 min ([1]; 150 min, 2 hours 0.1 N HCl, then pH 6.8 phosphate buffer): 105.4%
- Average % Drug Release (n = 6), 165 min ([1]; 165 min, 2 hours 0.1 N HCl, then pH 6.8 phosphate buffer): 105.2%
- Average % Drug Release (n = 6), 180 min ([1]; 180 min, 2 hours 0.1 N HCl, then pH 6.8 phosphate buffer): 105.0%
- Average % Drug Release (n = 6), 240 min ([1]; 240 min, 2 hours 0.1 N HCl, then pH 6.8 phosphate buffer): 103.9%
- Average % Drug Release (n = 6), 300 min ([1]; 300 min, 2 hours 0.1 N HCl, then pH 6.8 phosphate buffer): 102.5%
- solubility in water [2]: only sparingly soluble in water
- stability under acidic conditions [3]: undergoes isomerization to a form that is inactive
